Source: patent publication US12060349B2, “Glucosylceramide synthase inhibitors” (Genzyme Corporation, priority 2012, dated 2024)
pIC50: −log10 of the molar value. Read-outs that look alike come from different tables or passages of the source.

What was measured:
[1] = target: T1, glucosylceramide synthase (Homo sapiens, UniProt Q16739); assay: microsomal assay measuring conversion of ceramide to glucosylceramide by HPLC (GCS IC50); format: biochemical; settings: concentration causing 50% inhibition of glucosylceramide synthase activity
T1 construct: Microsomes were isolated from A375 human melanoma cells; endogenous in cells; host or cells: A375 human melanoma cells (microsomal fraction, 100,000 g pellet)
T1 sequence (Q16739 1-394): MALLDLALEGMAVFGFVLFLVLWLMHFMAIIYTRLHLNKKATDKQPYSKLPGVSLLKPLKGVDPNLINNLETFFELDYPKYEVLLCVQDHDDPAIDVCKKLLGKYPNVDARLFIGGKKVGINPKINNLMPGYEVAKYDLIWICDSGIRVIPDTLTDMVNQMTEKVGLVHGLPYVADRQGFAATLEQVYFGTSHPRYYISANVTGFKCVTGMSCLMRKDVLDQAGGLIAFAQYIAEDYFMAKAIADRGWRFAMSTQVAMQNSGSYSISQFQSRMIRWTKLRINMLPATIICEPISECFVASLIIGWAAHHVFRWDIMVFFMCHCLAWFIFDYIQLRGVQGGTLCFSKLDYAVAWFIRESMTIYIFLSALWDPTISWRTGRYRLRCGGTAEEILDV
Procedure: Inhibition of glucosylceramide synthase activity for certain compounds of the invention were measured with 1) a microsomal assay that directly measures the conversion of ceramide to glucosylceramide by HPLC and 2) second, cell based, phenotypic assay that monitors cell surface expression of the downstream lipid GM3 by antibody mediated immunofluorescence. The cell based assay was performed in two different cell types, B16 and C32. Cell viability was also assessed in the second, cell-based assay.
The “Compound Number” in the table corresponds to the compound disclosed in the Example of the same number. The results of the microsomal assay are expressed as “GCS IC50”, which represents the concentration of the compound causing 50% inhibition of glucosylceramide synthase activity. The results of the cell based assays (performed in two different cell systems, i.e. B16 mouse melanoma or C32 human melanoma cells) are expressed as “GM3 B16 IC50” or “GM3 C32 IC50” for the B16 assay and the C32 assay, respectively. These values represent the concentration of the compound causing 50% inhibition of GM3 expression on the cell surface. The results of the viability assays are expressed as “Viability, B16 IC50” or “Viability, C32 IC50”, respectively. These values represent the concentration of the compound causing 50% cell death. Values greater than 10 represent a lack of cell death.

[2] = system: GM3 expression on the cell surface, B16 mouse melanoma cells; assay: cell based phenotypic assay, cell surface GM3 by antibody mediated immunofluorescence, B16 (GM3 B16 IC50); settings: 50% inhibition of GM3 expression on the cell surface
Procedure: (§1) The cell based assay was performed in two different cell types, B16 and C32. Cell viability was also assessed in the second, cell-based assay.
(§2) The “Compound Number” in the table corresponds to the compound disclosed in the Example of the same number. […] The results of the cell based assays (performed in two different cell systems, i.e. B16 mouse melanoma or C32 human melanoma cells) are expressed as “GM3 B16 IC50” or “GM3 C32 IC50” for the B16 assay and the C32 assay, respectively. […] The results of the viability assays are expressed as “Viability, B16 IC50” or “Viability, C32 IC50”, respectively. These values represent the concentration of the compound causing 50% cell death. Values greater than 10 represent a lack of cell death.

[3] = system: GM3 expression on the cell surface, C32 human melanoma cells; assay: cell based phenotypic assay, cell surface GM3 by antibody mediated immunofluorescence, C32 (GM3 C32 IC50); settings: 50% inhibition of GM3 expression on the cell surface
Procedure: as §1, §2

B16 mouse melanoma cells = assay: cell viability in the B16 cell-based assay (Viability, B16 IC50); settings: concentration causing 50% cell death, values greater than 10 represent a lack of cell death, read-out: Viability, B16 IC50
Procedure: as §1, §2

C32 human melanoma cells = assay: cell viability in the C32 cell-based assay (Viability, C32 IC50)
Procedure: as §1, §2

[4] = B16 mouse melanoma cells, read-out: GM3 B16 IC50
[5] = C32 human melanoma cells, read-out: GM3 C32 IC50
[6] = C32 cells; concentration causing 50% cell death; values greater than 10 represent a lack of cell death; read-out: Viability, C32 IC50
[7] = Homo sapiens, C32, C32 cells; concentration causing 50% cell death; values greater than 10 represent a lack of cell death; read-out: Viability, C32 IC50

pIC50 [1] | pIC50 [2, 4] | pIC50 [3, 5] | pIC50 ([2]; Mus musculus, B16 mouse melanoma cells, read-out: GM3 B16 IC50) | pIC50 ([3]; Homo sapiens, C32 human melanoma cells, read-out: GM3 C32 IC50) | Compound | pIC50 (B16 mouse melanoma cells; B16 cells) | pIC50 (C32 human melanoma cells; [6]) | pIC50 (B16 mouse melanoma cells; Mus musculus, B16, B16 cells) | pIC50 (C32 human melanoma cells; [7]) | pIC50 ([2]; Mus musculus, read-out: GM3 B16 IC50, B16 mouse melanoma cells) | pIC50 ([3]; Homo sapiens, read-out: GM3 C32 IC50, C32 human melanoma cells) | pIC50 (C32 human melanoma cells; read-out: Viability, C32 IC50; C32 cells; concentration causing 50% cell death; values greater than 10 represent a lack of cell death)
8.75 | 7.28 | 9.52 |  |  | 3-Ethyl-N-(4-methyl-1-azabicyclo[3.2.2]nonan-4-yl)-4-(4-phenylpyrimidin-2-yl)piperazine-1-carboxamide [Example 143] | 5.51 | 5.50 |  |  |  |  | 
7.78 | 6.96 | 9.25 |  |  | 4-(4-(4-Fluorophenyl)pyrimidin-2-yl)-3-methyl-N-(4-methyl-1-azabicyclo[3.2.2]nonan-4-yl)piperazine-1-carboxamide [Example 146] | 5.20 | 6.00 |  |  |  |  | 
8.26 |  |  | 7.02 | 9.00 | C[C@@H]1CN(C(=O)NC2(C)CCN3CCC2CC3)C[C@H](C)N1c1nccc(-c2ccccc2)n1 (relative stereo) [Example 147, cis-3,5-Dimethyl-N-(4-methyl-1-azabicyclo[3.2.2]nonan-4-yl)-4-(4-phenylpyrimidin-2-yl)piperazine-1-carboxamide] |  |  | 5.45 | 6.00 |  |  | 
7.03 | 6.04 | 8.01 |  |  | CC1(NC(=O)C2CCN(c3nccc(-c4ccc(F)cc4)n3)CC2)CCN2CCC1CC2 (single isomer, unassigned) [Example 42, 1-(4-(4-Fluorophenyl)pyrimidin-2-yl)-N-(4-methyl-1-azabicyclo[3.2.2]nonan-4-yl)piperidine-4-carboxamide] |  |  | 5.12 | 5.33 |  |  | 
8.90 | 8.18 | 10.18 |  |  | CC1(NC(=O)C2CCN(c3nccc(-c4ccc(F)cc4)n3)CC2)CCN2CCC1CC2 (single isomer, unassigned) [Example 43, 1-(4-(4-Fluorophenyl)pyrimidin-2-yl)-N-(4-methyl-1-azabicyclo[3.2.2]nonan-4-yl)piperidine-4-carboxamide] | 5.15 | 5.05 |  |  |  |  | 
6.59 | 5.66 | 7.30 |  |  | CC1(NC(=O)C2CCN(c3cncc(-c4ccc(F)cc4)n3)CC2)CCN2CCC1CC2 (single isomer, unassigned) [Example 47, 1-(6-(4-Fluorophenyl)pyrazin-2-yl)-N-(4-methyl-1-azabicyclo[3.2.2]nonan-4-yl)piperidine-4-carboxamide] |  | 5.50 | 5.11 |  |  |  | 
8.79 | 7.32 | 10.02 |  |  | CC1(NC(=O)C2CCN(c3cncc(-c4ccc(F)cc4)n3)CC2)CCN2CCC1CC2 (single isomer, unassigned) [Example 48, 1-(6-(4-Fluorophenyl)pyrazin-2-yl)-N-(4-methyl-1-azabicyclo[3.2.2]nonan-4-yl)piperidine-4-carboxamide] | 5.11 | 8.29 |  |  |  |  | 
7.19 | 5.51 | 8.31 |  |  | COCCOCc1ccc(-c2nc(N3CCC(F)(C(=O)NC4(C)CCN5CCC4CC5)CC3)ncc2F)cc1 (single isomer, unassigned) [Example 78, 4-Fluoro-1-(5-fluoro-4-(4-((2-methoxyethoxy)methyl)phenyl)pyrimidin-2-yl)-N-(4-methyl-1-azabicyclo[3.2.2]nonan-4-yl)piperidine-4-carboxamide] |  | 6.00 | 5.45 |  |  |  | 
8.74 | 6.96 | 9.72 |  |  | COCCOCc1ccc(-c2nc(N3CCC(F)(C(=O)NC4(C)CCN5CCC4CC5)CC3)ncc2F)cc1 (single isomer, unassigned) [Example 79, 4-Fluoro-1-(5-fluoro-4-(4-((2-methoxyethoxy)methyl)phenyl)pyrimidin-2-yl)-N-(4-methyl-1-azabicyclo[3.2.2]nonan-4-yl)piperidine-4-carboxamide] | 5.37 | 6.67 |  |  |  |  | 
8.49 | 7.30 | 9.70 |  |  | C[C@@H]1CN(C(=O)NC2(C)CCN3CCC2CC3)CCN1c1nccc(-c2ccccc2)n1 (single isomer, unassigned) [Example 137] | 5.24 | 6.00 |  |  |  |  | 
6.04 | < 5.00 | 7.20 |  |  | C[C@@H]1CN(C(=O)NC2(C)CCN3CCC2CC3)CCN1c1nccc(-c2ccccc2)n1 (single isomer, unassigned) [Example 138] |  | 5.50 | 5.03 |  |  |  | 
7.76 | 7.17 | 8.86 |  |  | C[C@H]1CN(C(=O)NC2(C)CCN3CCC2CC3)CCN1c1nccc(-c2ccccc2)n1 (single isomer, unassigned) [Example 139] |  |  | 5.28 | 5.50 |  |  | 

Compound | pIC50 [1] | pIC50 [2, 4] | pIC50 [3, 5] | pIC50 ([2]; Mus musculus, B16 mouse melanoma cells, read-out: GM3 B16 IC50) | pIC50 ([3]; Homo sapiens, C32 human melanoma cells, read-out: GM3 C32 IC50) | pIC50 (B16 mouse melanoma cells; B16 cells) | pIC50 (C32 human melanoma cells; [6]) | pIC50 (B16 mouse melanoma cells; Mus musculus, B16, B16 cells) | pIC50 (C32 human melanoma cells; [7]) | pIC50 ([2]; Mus musculus, read-out: GM3 B16 IC50, B16 mouse melanoma cells) | pIC50 ([3]; Homo sapiens, read-out: GM3 C32 IC50, C32 human melanoma cells) | pIC50 (C32 human melanoma cells; read-out: Viability, C32 IC50; C32 cells; concentration causing 50% cell death; values greater than 10 represent a lack of cell death)
1-(4-(4-(2-Methoxyethoxy)phenyl)-2-methylbut-3-yn-2-yl)-3-(3-propylquinuclidin-3-yl)urea [Example 330] | 6.98 | 6.69 | 8.19 |  |  | ≤ 5.00 | 5.50 |  |  |  |  | 
1-(4-(4-Fluorophenoxy)pyrimidin-2-yl)-N-(3-methylquinuclidin-3-yl)piperidine-4-carboxamide [Example 121] | 8.88 | 7.58 | 10.03 |  |  | 5.12 | 7.00 |  |  |  |  | 
1-(5-Fluoro-4-(4-(2-methoxyethoxy)phenyl)pyrimidin-2-yl)-N-(3-methylquinuclidin-3-yl)piperidine-4-carboxamide [Example 57] | 8.62 | 7.16 | 9.77 |  |  | ≤ 5.00 | 6.00 |  |  |  |  | 
1-Azabicyclo[3.2.2]nonan-3-yl 4-(4′-fluoro-[1,1′-biphenyl]-3-yl)piperazine-1-carboxylate [Example 25] | 5.46 | 5.31 | 5.03 |  |  | 5.27 | 5.27 |  |  |  |  | 
2-(3-(3-(Methylcarbamoyl)phenoxy)phenyl)propan-2-ylcarbamate [Example 295] | 5.99 | 5.76 | 6.83 |  |  | ≤ 5.00 | ≤ 5.00 |  |  |  |  | 
4-(4′-Fluoro-[1,1′-biphenyl]-3-yl)-N-(4-methyl-1-azabicyclo[3.2.2]nonan-4-yl)piperazine-1-carboxamide [Example 22] | 6.21 | 6.20 | 7.39 |  |  | 5.15 | 6.00 |  |  |  |  | 
4-([1,1′-Biphenyl]-3-yl)-3-methyl-N-(4-methyl-1-azabicyclo[3.2.2]nonan-4-yl)piperazine-1-carboxamide [Example 32] | 6.26 | 6.34 | 7.33 |  |  | 5.14 | 5.50 |  |  |  |  | 
CCOc1ccc(-c2cccc(C(C)(C)NC(=O)OC3CN4CCC3CC4)c2)nn1 (stereo not drawn) [Example 318, Quinuclidin-3-yl (2-(3-(6-ethoxypyridazin-3-yl)phenyl)propan-2-yl)carbamate] | 5.84 |  |  |  |  |  |  |  |  | 6.20 | 7.16 | 6.00
